The values that follow come from ChEMBL document CHEMBL1201862, “PubChem BioAssay data set” (2004).

A short description of experiment [1]: inhibitors of Bluetongue virus cytopathic effect, confirmation, arbovirus, BSR cells (AID 1250).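 Note: protection from viral cytopathic effect measured as cell viability by ATP luminescence.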 The class given is functional. (Cytopathic effects are the visible damage that an infection or toxin causes in cultured cells.)
For experiment [2], the target named is Ion channel NompC (Danio rerio, UniProt Q7T1G6). Nature of the experiment: Fluorescence counterscreen assay for TRPML3 agonists: dose response cell-based high-throughput screening assay to identify agonists of the transient receptor potential channel N1 (TRPN1). [Related pubchem assays: 1526, 1424, 1448 ]. In kind it is functional.
Sequence of Ion channel NompC (Q7T1G6 whole entry): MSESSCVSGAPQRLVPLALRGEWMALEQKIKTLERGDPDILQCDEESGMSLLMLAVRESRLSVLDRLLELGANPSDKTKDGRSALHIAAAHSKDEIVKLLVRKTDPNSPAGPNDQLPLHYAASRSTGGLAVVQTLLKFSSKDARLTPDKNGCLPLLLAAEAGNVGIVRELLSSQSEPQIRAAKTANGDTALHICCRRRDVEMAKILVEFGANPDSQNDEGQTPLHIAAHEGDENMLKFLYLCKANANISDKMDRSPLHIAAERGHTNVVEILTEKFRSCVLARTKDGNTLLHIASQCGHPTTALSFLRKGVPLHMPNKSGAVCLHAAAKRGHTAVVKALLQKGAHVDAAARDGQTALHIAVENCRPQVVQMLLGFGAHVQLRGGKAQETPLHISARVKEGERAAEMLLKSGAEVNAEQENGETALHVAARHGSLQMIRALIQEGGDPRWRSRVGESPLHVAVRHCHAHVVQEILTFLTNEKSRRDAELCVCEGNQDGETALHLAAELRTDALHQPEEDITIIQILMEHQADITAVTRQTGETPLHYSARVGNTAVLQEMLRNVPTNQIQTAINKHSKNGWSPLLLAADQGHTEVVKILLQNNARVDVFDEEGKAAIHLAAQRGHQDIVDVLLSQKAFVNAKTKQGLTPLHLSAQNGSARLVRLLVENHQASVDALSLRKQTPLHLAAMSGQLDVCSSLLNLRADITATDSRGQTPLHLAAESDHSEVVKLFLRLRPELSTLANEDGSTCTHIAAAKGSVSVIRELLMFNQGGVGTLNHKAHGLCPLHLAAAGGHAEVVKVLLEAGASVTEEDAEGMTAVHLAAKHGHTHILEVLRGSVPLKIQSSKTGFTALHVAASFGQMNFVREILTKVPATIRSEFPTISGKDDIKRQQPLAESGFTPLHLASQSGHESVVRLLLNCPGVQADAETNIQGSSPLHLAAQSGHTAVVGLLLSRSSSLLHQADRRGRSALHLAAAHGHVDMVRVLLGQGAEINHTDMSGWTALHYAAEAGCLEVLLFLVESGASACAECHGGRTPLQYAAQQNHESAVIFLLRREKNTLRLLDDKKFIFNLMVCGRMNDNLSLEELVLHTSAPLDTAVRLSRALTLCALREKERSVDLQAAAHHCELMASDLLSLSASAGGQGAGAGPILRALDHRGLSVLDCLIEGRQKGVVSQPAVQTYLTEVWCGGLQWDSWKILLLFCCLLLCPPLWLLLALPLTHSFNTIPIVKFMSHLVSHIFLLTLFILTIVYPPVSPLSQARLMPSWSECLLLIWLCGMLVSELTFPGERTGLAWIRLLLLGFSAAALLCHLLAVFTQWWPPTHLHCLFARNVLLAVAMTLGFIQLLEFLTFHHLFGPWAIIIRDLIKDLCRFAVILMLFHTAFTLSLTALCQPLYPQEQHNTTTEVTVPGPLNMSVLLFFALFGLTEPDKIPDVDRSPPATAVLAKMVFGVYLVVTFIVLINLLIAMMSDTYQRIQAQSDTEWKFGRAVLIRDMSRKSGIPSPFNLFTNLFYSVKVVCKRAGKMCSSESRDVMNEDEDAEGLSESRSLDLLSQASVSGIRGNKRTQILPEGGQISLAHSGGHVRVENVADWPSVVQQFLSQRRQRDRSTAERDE
The target of experiment [3] is Mucolipin-3 (Homo sapiens, UniProt Q8TDD5). Nature of the experiment: Dose response cell-based high-throughput screening assay for agonists of the transient receptor potential channel ML3 (TRPML3). [Related pubchem assays: 1526, 1424, 1448 ]. The class given is functional.
Sequence of Mucolipin-3 (Q8TDD5 whole entry): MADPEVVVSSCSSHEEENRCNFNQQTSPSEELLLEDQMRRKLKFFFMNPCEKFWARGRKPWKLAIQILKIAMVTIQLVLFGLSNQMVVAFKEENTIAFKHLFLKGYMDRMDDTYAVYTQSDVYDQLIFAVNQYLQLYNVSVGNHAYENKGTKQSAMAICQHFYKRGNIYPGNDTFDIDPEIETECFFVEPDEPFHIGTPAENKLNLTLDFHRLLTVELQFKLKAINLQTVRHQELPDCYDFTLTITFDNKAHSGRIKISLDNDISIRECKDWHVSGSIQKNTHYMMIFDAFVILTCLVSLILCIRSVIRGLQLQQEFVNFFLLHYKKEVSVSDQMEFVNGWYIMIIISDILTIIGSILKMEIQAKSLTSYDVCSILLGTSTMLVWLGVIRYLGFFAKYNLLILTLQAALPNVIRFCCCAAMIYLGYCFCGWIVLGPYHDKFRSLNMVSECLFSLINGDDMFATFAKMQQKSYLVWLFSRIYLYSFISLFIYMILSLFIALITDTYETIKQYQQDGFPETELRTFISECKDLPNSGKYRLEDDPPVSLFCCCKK
Experiment [4] has as its target Oxytocin receptor (Homo sapiens, UniProt P30559). Briefly: Counterscreen for vasopressin 1 receptor (V1R) agonists: Fluorescence-based cell-based high throughput dose response assay for agonists of the Oxytocin Receptor (OXTR). [Related pubchem assays: 2435 (Primary screen (OXTR agonists in singlicate)), 434964 (Confirmation screen (V1R agonists in triplicate)), 434969 (Counterscreen (OXTR agonists in …. In kind it is functional. In general terms: The purpose of a counterscreen is to sort out artefacts and off-target activity.

Experiment [5] has as its target Vasopressin V1a receptor (Homo sapiens, UniProt P37288). Briefly: Fluorescence-based cell-based high throughput dose response screening assay for agonists of the vasopressin 1 receptor (V1R). The class given is functional.
The target in experiment [6] is Inward rectifier potassium channel 2 (Mus musculus, UniProt P35561). Nature of the experiment: Manual electrophysiological patch clamp assay for SAR compounds that inhibit/block inward-rectifying potassium ion channel Kir2.1. [Related pubchem assays: 1843 (Summary assay for Kir2.1 inhibitor assays.), 1672 (Primary HTS of 305616 compounds where 2592 were identified as active.)]. The class given is functional. Background: The patch-clamp technique gives a direct electrical read-out from membranes.
Sequence of Inward rectifier potassium channel 2 (P35561 whole entry): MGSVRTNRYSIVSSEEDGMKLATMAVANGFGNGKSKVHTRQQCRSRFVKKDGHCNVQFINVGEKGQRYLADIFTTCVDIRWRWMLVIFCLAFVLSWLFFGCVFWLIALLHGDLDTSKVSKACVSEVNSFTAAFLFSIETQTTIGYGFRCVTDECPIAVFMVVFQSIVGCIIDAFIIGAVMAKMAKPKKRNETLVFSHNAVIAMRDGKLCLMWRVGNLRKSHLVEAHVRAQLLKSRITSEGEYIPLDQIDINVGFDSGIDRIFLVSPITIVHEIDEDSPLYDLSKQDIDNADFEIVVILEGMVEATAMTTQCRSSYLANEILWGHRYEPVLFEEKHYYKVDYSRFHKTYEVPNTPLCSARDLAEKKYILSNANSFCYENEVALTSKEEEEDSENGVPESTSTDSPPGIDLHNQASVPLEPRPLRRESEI

Experiment [7] concerns the target Bcl-2-like protein 1 (Homo sapiens, UniProt Q07817). Nature of the experiment: BCL-XL inhibitors, dose response, selectivity assay for MCL1 inhibitor project, biochemical, fluorescence polarization, 1536-well (AID 2218).
In experiment [8] the target is Induced myeloid leukemia cell differentiation protein Mcl-1 (Homo sapiens, UniProt Q07820). Briefly: MCL1-BIM BH3 interaction inhibitors, dose response, biochemical, fluorescence polarization, BIM-BH3 peptide, 1536-well (AID 2217).
Sequence of Induced myeloid leukemia cell differentiation protein Mcl-1 (Q07820 whole entry): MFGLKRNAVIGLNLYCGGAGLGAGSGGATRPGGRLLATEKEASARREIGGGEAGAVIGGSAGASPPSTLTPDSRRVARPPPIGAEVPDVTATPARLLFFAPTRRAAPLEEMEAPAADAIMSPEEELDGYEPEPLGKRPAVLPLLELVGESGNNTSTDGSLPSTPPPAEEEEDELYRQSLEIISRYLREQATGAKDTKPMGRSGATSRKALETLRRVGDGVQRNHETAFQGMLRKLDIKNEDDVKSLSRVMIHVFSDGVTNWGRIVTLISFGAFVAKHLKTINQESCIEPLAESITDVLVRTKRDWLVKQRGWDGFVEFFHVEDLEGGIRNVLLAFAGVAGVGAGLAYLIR
Experiment [9] is described as follows: Luminescence-based counterscreen assay for KLF5 inhibitors: dose response cell-based high throughput screening assay to identify cytotoxic compounds using the IEC-6 intestinal epithelial cell line. [Related pubchem assays: 1700 (Primary screen.), 1834 (Confirmation screen.), 1858 (Summary AID.), 1905 (Counterscreen.)]. In kind it is functional.

Structures are written as SMILES. Calls of active or inactive are those of the source. Unless noted, no cut-off for these calls is given here. A value given as a limit tells only on which side of the number the result lay.

Sequence of Bcl-2-like protein 1 (Q07817 whole entry): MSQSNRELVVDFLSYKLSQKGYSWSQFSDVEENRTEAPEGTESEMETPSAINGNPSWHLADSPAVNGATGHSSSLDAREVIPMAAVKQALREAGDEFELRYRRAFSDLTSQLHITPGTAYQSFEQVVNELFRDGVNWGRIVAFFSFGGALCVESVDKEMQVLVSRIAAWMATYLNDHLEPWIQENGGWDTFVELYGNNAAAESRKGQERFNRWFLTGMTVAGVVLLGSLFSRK
Sequence of Oxytocin receptor (P30559 whole entry): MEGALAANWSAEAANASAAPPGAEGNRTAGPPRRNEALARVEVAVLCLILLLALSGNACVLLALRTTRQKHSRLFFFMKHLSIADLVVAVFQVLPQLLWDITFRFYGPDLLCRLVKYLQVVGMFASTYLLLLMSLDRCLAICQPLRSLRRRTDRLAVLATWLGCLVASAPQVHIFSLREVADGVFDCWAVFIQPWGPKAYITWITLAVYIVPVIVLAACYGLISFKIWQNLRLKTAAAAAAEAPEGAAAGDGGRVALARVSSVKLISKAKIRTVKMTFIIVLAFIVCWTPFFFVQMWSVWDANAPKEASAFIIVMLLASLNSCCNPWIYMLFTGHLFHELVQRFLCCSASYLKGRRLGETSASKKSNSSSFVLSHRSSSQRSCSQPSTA
Sequence of Vasopressin V1a receptor (P37288 whole entry): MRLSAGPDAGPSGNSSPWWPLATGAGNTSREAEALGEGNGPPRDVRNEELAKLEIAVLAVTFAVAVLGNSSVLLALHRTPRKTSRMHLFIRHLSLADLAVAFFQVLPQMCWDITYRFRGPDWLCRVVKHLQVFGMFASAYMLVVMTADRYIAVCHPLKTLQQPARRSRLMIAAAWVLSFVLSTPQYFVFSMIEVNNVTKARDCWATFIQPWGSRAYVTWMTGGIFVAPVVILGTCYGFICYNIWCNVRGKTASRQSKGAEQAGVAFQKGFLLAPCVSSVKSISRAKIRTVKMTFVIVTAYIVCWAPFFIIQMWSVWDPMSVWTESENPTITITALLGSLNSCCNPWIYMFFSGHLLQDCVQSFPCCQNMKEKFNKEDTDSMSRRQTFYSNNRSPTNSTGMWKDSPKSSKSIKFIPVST

A word on the IC50: it is the concentration at which inhibition is half-maximal. Take `CCNC(=O)NC(=O)C(C)Sc1nc2cc(C(=O)OC)ccc2c(=O)n1-c1ccccc1` (centres undefined): the half-maximal inhibitory concentration (IC50) in experiment [1] was 28.9 µM (active). One may read the EC50 as the midpoint of the concentration-response curve. For the compound `CCC(C(=O)Nc1cc(C)nn1-c1nc(C)cc(C)n1)c1ccccc1` (centres undefined), the concentration for a half-maximal effect (EC50) in experiment [2] and in experiment [3] was > 29.9 µM (not active) each time. Consider `CC(NC(=O)Nc1ccc(Cl)c(Cl)c1)C(c1ccccc1)N1CCOCC1` (centres undefined), for which the concentration for a half-maximal effect (EC50) in experiment [4] was > 29.9 µM (not active); in [5], 6.23 µM (active).

Take `COc1ccc(CNCc2ccc(C(C)(C)C)cc2)cc1`: in experiment [6], the half-maximal inhibitory concentration (IC50) was 1.27 µM (active). With `CCOC(=O)C[C@H]1c2ccc(C(F)(F)F)cc2S(=O)(=O)N1c1cccc(OC)c1`, the IC50 in experiment [7] and in experiment [8] was > 109 µM (not active) each time. With `O=C(N/N=C/c1cccc(Oc2ccccc2)c1)c1ccccc1F`, in experiment [9], the IC50 is 18.7 µM (not active).
